Measurements taken from ChEMBL document CHEMBL3885861, “Open TG-GATES”.

Organism: Rattus norvegicus
Test: Open TG-GATES - Regimen: Single
Format: toxicity, organism-based, Sprague-Dawley
Parameters: regimen Single, gender Male, age 6 weeks
Conditions: in vivo, po, 2 mg/kg, route gavage, dose level Low; for APTT / Bas / Eos / Fbg / Hb / Ht / Lym / MCH / MCHC / MCV / Mono / Neu / PT / Plat / RBC / Ret / WBC: tissue Blood; for KIDNEY_L / KIDNEY_R / KIDNEY_TOTAL: tissue Kidney

In the case of `COc1cc2c(c(OC)c1OC)-c1ccc(OC)c(=O)cc1[C@@H](NC(C)=O)CC2` [COLCHICINE], the APTT (3 h) was 16.6 s, the Bas (3 h) was 0% and the Eos (3 h) was 1%. For the same molecule, the Fbg (3 h) was 218.6 mg/dL, the Hb (3 h) was 13.5 g/dL and the Ht (3 h) was 40.7%. For the same molecule, the Lym (3 h) was 84.4%, the MCH (3 h) was 21.9 pg and the MCHC (3 h) was 33.2%. The MCV (3 h) was 66.1 fL, the Mono (3 h) was 6.2% and the Neu (3 h) was 8.8%. For the same molecule, the PT (3 h) was 11.8 s, the Plat (3 h) was 109.4 x10_4/uL and the RBC (3 h) was 616.8 x10_4/ul. It also gave a Ret (3 h) of 10.2%, a WBC (3 h) of 106.7 x10_2/uL and a KIDNEY_L (3 h) of 1 g. For the same molecule, the KIDNEY_R (3 h) was 1 g, the KIDNEY_TOTAL (3 h) was 2 g and the ALP (3 h, tissue Plasma) was 946.8 IU/L. It also gave an ALT (3 h, tissue Plasma) of 41.6 IU/L, an AST (3 h, tissue Plasma) of 84.4 IU/L and a CRE (3 h, tissue Plasma) of 0.5 mg/dL. The Cl (3 h, tissue Plasma) was 104 meq/L, the DBIL (3 h, tissue Plasma) was 0.01 mg/dL and the GLC (3 h, tissue Plasma) was 199.8 mg/dL. It also gave an IP (3 h, tissue Plasma) of 9.3 mg/dL, a K (3 h, tissue Plasma) of 4.7 meq/L and an LDH (3 h, tissue Plasma) of 137.8 IU/L. The Na (3 h, tissue Plasma) was 140.2 meq/L, the PL (3 h, tissue Plasma) was 143.6 mg/dL and the RALB (3 h, tissue Plasma) was 3.7 g/dL. It also gave a TBIL (3 h, tissue Plasma) of 0.4 mg/dL, a TC (3 h, tissue Plasma) of 80.6 mg/dL and a TG (3 h, tissue Plasma) of 57.6 mg/dL. It also gave a TP (3 h, tissue Plasma) of 5.5 g/dL, a gamma-GTP (3 h, tissue Plasma) of 1.8 IU/L and a TERMINAL_BW (6 h) of 217.7 g. The APTT (6 h) was 16.3 s, the Bas (6 h) was 0% and the Eos (6 h) was 1%. For the same molecule, the Fbg (6 h) was 218.8 mg/dL, the Hb (6 h) was 13.4 g/dL and the Ht (6 h) was 40.8%. The Lym (6 h) was 81%, the MCH (6 h) was 21.6 pg and the MCHC (6 h) was 32.7%. The MCV (6 h) was 65.9 fL, the Mono (6 h) was 6.8% and the Neu (6 h) was 11.2%. The PT (6 h) was 11.9 s, the Plat (6 h) was 109.8 x10_4/uL and the RBC (6 h) was 620 x10_4/ul. The Ret (6 h) was 9.8%, the WBC (6 h) was 115.2 x10_2/uL and the KIDNEY_L (6 h) was 0.9 g. The KIDNEY_R (6 h) was 0.9 g, the KIDNEY_TOTAL (6 h) was 1.9 g and the ALT (6 h, tissue Plasma) was 40.8 IU/L. The AST (6 h, tissue Plasma) was 81.8 IU/L, the CRE (6 h, tissue Plasma) was 0.5 mg/dL and the Cl (6 h, tissue Plasma) was 104.4 meq/L. It also gave a DBIL (6 h, tissue Plasma) of 0.03 mg/dL, a GLC (6 h, tissue Plasma) of 188.6 mg/dL and an IP (6 h, tissue Plasma) of 9.8 mg/dL. It also gave a K (6 h, tissue Plasma) of 4.7 meq/L, an LDH (6 h, tissue Plasma) of 113.6 IU/L and a Na (6 h, tissue Plasma) of 140.2 meq/L. It also gave a PL (6 h, tissue Plasma) of 131.6 mg/dL, an RALB (6 h, tissue Plasma) of 3.7 g/dL and a TBIL (6 h, tissue Plasma) of 0.4 mg/dL. For the same molecule, the TC (6 h, tissue Plasma) was 73 mg/dL, the TG (6 h, tissue Plasma) was 49.6 mg/dL and the TP (6 h, tissue Plasma) was 5.5 g/dL. It also gave a gamma-GTP (6 h, tissue Plasma) of 1.2 IU/L and a TERMINAL_BW (9 h) of 215.3 g.
